Results taken from ChEMBL document CHEMBL5550180, “Enhancing anti-cancer capacity: Novel class I/II HDAC inhibitors modulate EMT, cell cycle, and apoptosis pathways” (Bioorg Med Chem, 2024).
The source made the active and inactive calls. The calls are words filed in the database; no cut-off is given here.

Assays:
A549 [1] = assay: cells; type: functional, cell-based; conditions: Homo sapiens, A549, 48 h
Description: Anticancer activity against human A549 cells assessed as inhibition of cell growth measured for 48 hrs by MTT assay

HT-29 [2] = assay: cells; type: functional, cell-based; conditions: Homo sapiens, HT-29, 48 h
Description: Anticancer activity against human HT-29 cells assessed as inhibition of cell growth measured for 48 hrs by MTT assay

NCI-H1299 = assay: Anticancer activity against human NCI-H1299 cells assessed as reduction in cell viability at 10 to 40 uM incubated for 48 hrs by MTT assay; type: functional, cell-based; conditions: dose 10-40 µM
A549 [3] = assay: Anticancer activity against human A549 cells assessed as suppression of cell viability at 10 uM incubated for 48 hrs by MTT assay; type: functional, cell-based
HT-29 [4] = assay: Anticancer activity against human HT-29 cells assessed as suppression of cell viability at 10 uM incubated for 48 hrs by MTT assay; type: functional, cell-based
A549 [5] = assay: Anticancer activity against human A549 cells assessed as viable cells by measuring green fluorescence intensity measured for 48 hrs by Calcein AM staining based fluorescent microscopic analysis; type: functional, cell-based; conditions: dose 1-20 µM
HT-29 [6] = assay: Anticancer activity against human HT-29 cells assessed as viable cells by measuring green fluorescence intensity measured for 48 hrs by Calcein AM staining based fluorescent microscopic analysis; type: functional, cell-based; conditions: dose 1-20 µM
A549 [7] = assay: Inhibition of colony formation in human A549 cells at 250 to 500 nM measured for 10 days by crystal violet staining based analysis; type: functional, cell-based; conditions: dose 250-500 nM, time 10.0 day
HT-29 [8] = assay: Inhibition of colony formation in human HT-29 cells at 125 to 250 nM measured for 10 days by crystal violet staining based analysis; type: functional, cell-based; conditions: dose 125-250 nM, time 10.0 day
[9] = molecular target: T1, Histone deacetylase (Homo sapiens) (UniProt Q13547+O15379+Q9UBN7+Q92769+Q9UQL6+Q8WUI4+Q9BY41+Q96DB2+P56524+Q9UKV0+Q969S8); assay: Inhibition of HDAC in human A549 cells incubated for 48 hrs by Western blot analysis; type: cell-based; conditions: dose 0.1-10 µM
[10] = molecular target: T1, Histone deacetylase (Homo sapiens); assay: Inhibition of HDAC in human HT-29 cells incubated for 48 hrs by Western blot analysis; type: cell-based; conditions: dose 0.1-10 µM
[11] = molecular target: T1, Histone deacetylase (Homo sapiens); assay: Inhibition of HDAC in human HT-29 cells assessed as increase in histone acetylation level at 2.5 to 5 uM incubated for 48 hrs by Western blot analysis; type: cell-based; conditions: dose 2.5-5 µM
[12] = molecular target: T1, Histone deacetylase (Homo sapiens); assay: Inhibition of HDAC in human HT-29 cells assessed as increase in acetyl alpha-tubulin level at 2.5 to 5 uM incubated for 48 hrs by Western blot analysis; type: cell-based; conditions: dose 2.5-5 µM
HT-29 [13] = assay: Inhibition of cell migration in human HT-29 cells at 1.25 uM measured at 48 hrs by wound healing assay (reference value: 73.2%); type: functional
HT-29 [14] = assay: Inhibition of cell migration in human HT-29 cells assessed as upregulation of E-cadherin level at 2.5 to 5 uM incubated for 48 hrs by Western blot analysis; type: functional, cell-based; conditions: dose 2.5-5 µM
HT-29 [15] = assay: Inhibition of cell migration in human HT-29 cells assessed as downregulation of vimentin level at 2.5 to 5 uM incubated for 48 hrs by Western blot analysis; type: functional, cell-based; conditions: dose 2.5-5 µM
HT-29 [16] = assay: Inhibition of cell migration in human HT-29 cells assessed as downregulation of slug level at 2.5 to 5 uM incubated for 48 hrs by Western blot analysis; type: functional, cell-based; conditions: dose 2.5-5 µM
A549 [17] = assay: Induction of cell cycle arrest in human A549 cells assessed as accumulation at sub G1 at 5 to 10 uM incubated for 24 to 48 hrs by PI-staining based flow cytometric analysis; type: functional; conditions: dose 5-10 µM, time 24-48 hrs
A549 [18] = assay: Induction of apoptosis in human A549 cells assessed as increase in PARP level at 5 to 10 uM incubated for 48 hrs by Western blot analysis; type: functional, cell-based; conditions: dose 5-10 µM
A549 [19] = assay: Induction of apoptosis in human A549 cells assessed as increase in caspase 3 level at 5 to 10 uM incubated for 48 hrs by Western blot analysis; type: functional, cell-based; conditions: dose 5-10 µM
A549 [20] = assay: Induction of apoptosis in human A549 cells assessed as upregulation of p53 expression at 5 to 10 uM incubated for 48 hrs by Western blot analysis; type: functional, cell-based; conditions: dose 5-10 µM
A549 [21] = assay: Induction of cell cycle arrest in human A549 cells assessed as effect on p21 level at 5 to 10 uM incubated for 48 hrs by Western blot analysis; type: functional, cell-based; conditions: dose 5-10 µM
A549 [22] = assay: Induction of cell cycle arrest in human A549 cells assessed as effect on cyclin B1 level at 5 to 10 uM incubated for 48 hrs by Western blot analysis; type: functional, cell-based; conditions: dose 5-10 µM
A549 [23] = assay: Anticancer activity against human A549 cells cultured as 3D spheroids assessed as suppression of cell growth at 10 uM incubated for 48 hrs by celltiter-glo luminescent assay; type: functional, cell-based
HT-29 [24] = assay: Anticancer activity against human HT-29 cells cultured as 3D spheroids assessed as suppression of cell growth at 10 uM incubated for 48 hrs by celltiter-glo luminescent assay; type: functional, cell-based
[25] = Toxicity in zebrafish embryo assessed as hatching rate at 1 to 5 uM measured after 72 hrs post fertilization by microscopic analysis; design: species or system Danio rerio; conditions: in vivo, dose 1-5 µM
[26] = Toxicity in zebrafish embryo assessed as survival rate at 1 to 5 uM measured after 72 hrs post fertilization; design: species or system Danio rerio; conditions: in vivo, dose 1-5 µM
[27] = Toxicity in zebrafish embryo assessed as effect on body length at 1 to 5 uM measured after 96 hrs post fertilization by microscopic analysis; design: species or system Danio rerio; conditions: in vivo, dose 1-5 µM
[28] = Toxicity in zebrafish embryo assessed as formation of scoliosis at 1 to 5 uM measured after 96 hrs post fertilization by microscopic analysis; design: species or system Danio rerio; conditions: in vivo, dose 1-5 µM
[29] = Toxicity in zebrafish embryo assessed as yolk sac edema at 1 to 5 uM measured after 96 hrs post fertilization by microscopic analysis; design: species or system Danio rerio; conditions: in vivo, dose 1-5 µM
A549 [30] = assay: Inhibition of cell migration in human A549 cells at 2.5 uM measured at 24 hrs by wound healing assay (reference value: 68.4%); values are per cent of control; conditions: A549, 24 h
A549 [31] = assay: Inhibition of cell migration in human A549 cells at 2.5 uM measured at 48 hrs by wound healing assay (reference value: 42.3%); values are per cent of control; conditions: A549, 48 h
A549 [32] = assay: Inhibition of cell migration in human A549 cells at 2.5 uM measured immediately by wound healing assay (reference value: 100%); values are per cent of control
HT-29 [33] = assay: Inhibition of cell migration in human HT-29 cells at 1.25 uM measured at 24 hrs by wound healing assay (reference value: 85.7%); values are per cent of control; conditions: HT-29, 24 h
HT-29 [34] = assay: Inhibition of cell migration in human HT-29 cells at 1.25 uM measured immediately by wound healing assay (reference value: 100%); values are per cent of control

In the case of `Nc1ccccc1NC(=O)c1ccc(Cc2cn(S(=O)(=O)c3ccccc3)c3ccccc23)cc1`, the IC50 (A549 [1]) is reported as 4.86 µM, the IC50 (HT-29 [2]) is reported as 1.92 µM and the Activity (NCI-H1299) is reported as “Active”. For the same compound, the Activity (A549 [3]) was “Active”, the Activity (HT-29 [4]) was “Active” and the Activity (A549 [5]) was “Dose-Dependent Effect”. For the same compound, the Activity (HT-29 [6]) was “Dose-Dependent Effect”, the inhibition (A549 [7]) was “Active” and the inhibition (HT-29 [8]) was “Active”. The inhibition [9] was “Active”, the inhibition [10] was “Active” and the inhibition [11] was “Active”. The inhibition [12] was “Active”, the inhibition at 1.25 µM (HT-29 [13]) was 82.1% and the inhibition (HT-29 [14]) was “Active”. The inhibition (HT-29 [15]) was “Active”, the inhibition (HT-29 [16]) was “Active” and the Activity (A549 [17]) was “Active”. For the same compound, the Activity (A549 [18]) was “Active”, the Activity (A549 [19]) was “Active” and the Activity (A549 [20]) was “Active”. The Activity (A549 [21]) was “Active”, the Activity (A549 [22]) was “Active” and the Activity (A549 [23]) was “Active”. For the same compound, the Activity (HT-29 [24]) was “Active”, the Activity [25] was 100% and the survival at 72 h, up to 5 µM [26] was ~100%. For the same compound, the Activity [27] was “Non-Toxic”, the Activity [28] was “Non-Toxic” and the Activity [29] was “Non-Toxic”. It also gave a wound area remaining at 2.5 µM (A549 [30]) of 75.8%, a wound area remaining at 2.5 µM (A549 [31]) of 53.6% and a wound area remaining at 2.5 µM (A549 [32]) of 100%. It also gave a wound area remaining at 1.25 µM (HT-29 [33]) of 89.6% and a wound area remaining at 1.25 µM (HT-29 [34]) of 100%.
